Where two headings read alike, the source gives them in different places.
Experiments:
Type in all cases: cell-based
[1] = test system: Aβ (1-40) secretion by CHO7W cells (stably transfected with human APP751 wt cDNA); assay: Inhibition of Aβ(1-40) secretion (ELISA, cellular supernatants); conditions: Aβ 1-40 ELISA; for minimal effective concentration: read-out: Inhibition secretion beta-amyloid (minimum concentration)
Description: To quantitate Aβ secretion ELISA-based method was used. The assay consists in detection of antigen by selective monoclonal anti-Aβ-antibodies at two different epitopes forming a “Sandwich-complex”, that is detected by colorimetric measure due to the binding of a secondary antibody conjugated with peroxidase that catalyses the conversion of a substrate or chromogen, TMB, into a coloured product, directly proportional to the peptide quantity in the sample. The Aβ production has been analyzed by ELISA, using a colorimetric commercial kit: Immunoassay Kit Human β Amyloid 1-40 (Biosource).
Aβ (1-40) were quantified from cellular supernatants. An APP-transfected cell line has been employed for the experiments: CHO7W (stably transfected with human APP751 wt cDNA). The cells were grown in a culture medium consisting of DMEM supplemented with 2% Fetal bovine serum, 1% penicillin-streptomycin, 1% L-glutamine and 200 μg/ml G418. Cells are seeded in 96-well culture microplate, at 5000 cells/well and treatment with different compounds at different concentrations is performed 24 hour after seeding.
OM99-2 (H-5108, Bachem), a BACE inhibitor, was used as Aβ secretion reduction positive control in all the Aβ secretion studies. The cells were treated with this compound at 3 μM concentration, culture media were collected at 24 hours.

[2] = test system: SH-SY5Y human neuroblastoma cells; assay: Toxicity: LDH activity release in SH-SY5Y cells; conditions: 24 h; for Maximum concentration tested for toxicity: increasing concentrations from 1 μM up to 1 mM
Method: The potential effects on cell viability of the assayed compounds are assayed in SH-SY5Y human neuroblastoma cells, by quantification of Lactate dehydrogenase (LDH) activity release. SH-SY5Y human neuroblastoma cells are seeded into 96-well culture plates at 10^4 cells/well. The medium is then removed and the cells incubated with different concentrations of the compounds during 24 h. The compounds are tested at increasing concentrations starting from 1 μM, in fresh culture medium, in order to find the minimum concentration at which the compounds are toxic, up to a maximum of 1 mM. After 24 h, the medium is removed and cells attached to the bottom of the well are lysed by adding 50 μl of Krebs-Hepes; Triton X-100 1% during 5 minutes at room temperature. For LDH release quantification, the Roche cytotoxicity detection kit (Cat.
No. 11 644 793 001) is used. The LDH activity is measured by its absorbance at 492 nm with reference wavelength 620 nm.
In Table 1, for each compound the maximum concentration at which toxicity was tested is indicated in the second column. In the third column, it is indicated whether at this maximum concentration the compound was toxic or not. All the compounds, with the exception of Compound 3, resulted non-toxic at the concentration for which activity was found, in most of the cases even at a 1000-fold concentration. Thus, the compounds may be considered non-toxic.

[3] = test system: SH-SY5Y human neuroblastoma cells; assay: Protection against hydrogen peroxide-induced cell death (LDH); conditions: compound 1 h before H2O2 100 μM, 24 h; for minimal effective concentration: Homo sapiens, SH-SY5Y, read-out: Protect. H2O2 (minimum concentration for which protection was determined)
Method: The aim of this assay is to determine the neuroprotective effect of the compounds of formula (I), when human neuroblastoma cells are exposed to oxidative stress induced by hydrogen peroxide, which is highly deleterious to the cell and its accumulation causes oxidation of cellular targets such as DNA, proteins, and lipids leading to mutagenesis and cell death.
SH-SY5Y human neuroblastoma cells are seeded into 96-well culture plate at a density of 10^4 cells/well. Cells are exposed to different concentrations of the compound one hour before the treatment with H2O2 100 μM during 24 h. 5 mM N-acetylcysteine (NAC), a known anti-oxidant agent was used as a positive control, and preincubated 1 hour before the treatment with H2O2. After 24 h, the medium is removed and cells attached to the bottom of the well are lysed by adding 50 μl of Triton X-100 1% in Krebs-Hepes during 5 minutes at room temperature. For LDH release quantification, Roche cytotoxicity detection kit (Cat. No. 11 644 793 001) was used.

[4] = test system: SH-SY5Y human neuroblastoma cells; assay: Protection against 6-OHDA-induced cell death, condition B (no fetal bovine serum); conditions: preincubated 1 hour, 6-OHDA 50 μM 24 hours, read-out: Protect. 6-OHDA (−FBS) (minimum concentration with neuroprotective effect)
Description: (§1) The aim of this experiment is to determine the protective effect of the compounds of formula (1) against the toxicity caused by 6-OHDA. This toxin induces a cell death similar to which occurs in Parkinson's disease, destroying dopaminergic neurons (“MPTP and 6-hydroxydopamine-induced neurodegeneration as models for Parkinson's disease: neuroprotective strategies”; Grunblatt E, et al.; J Neurol. 2000 Apr; 247 Suppl 2:II95-102).
(§2) Two or three days before the experiment, the SH-SY5Y human neuroblastoma cells are seeded into 96-well culture plate at a density of 10^4 cells/well. Cells are exposed to the treatment with 6-OHDA and, finally, cell death is measured by LDH quantification. As positive control we used NAC.
• B) NAC and the compound of formula (I) are preincubated during 1 hour before the treatment with 6-OHDA 50 μM during 24 hours. The assay is performed in a medium without any fetal bovine serum.
(§3) For each compound the minimum concentration of compound of formula (I) at which a neuroprotective effect is shown.

[5] = test system: SH-SY5Y human neuroblastoma cells; assay: Protection against 6-OHDA-induced cell death, condition A (10% foetal bovine serum); conditions: preincubated 2 hours, 6-OHDA 75 μM 16 hours, read-out: Protect. 6-OHDA (+ FBS) (minimum concentration with neuroprotective effect)
Description: as §1, §2
• A) NAC and the compound of formula (I) are preincubated during 2 hours before the treatment with 6-OHDA 75 μM during 16 hours. The assay is performed in medium containing 10% Foetal bovine serum.
as §3

SH-SY5Y cells = assay: Neuroprotection against Aβ25-35 toxicity (LDH assay); conditions: Homo sapiens, pre-treated 1 hour, 200 μM Aβ25-35 24 hours, read-out: Protect. beta-Amyloid25-35 (minimum concentration showing neuroprotection)
Method: In order to evaluate potential neuroprotection of compounds, SH-SY5Y cells, cultured in 96-well plates, were pre-treated for 1 hour with the compound at different concentrations and then exposed 24 hours to 200 μM Aβ25-35 (Neosystem) to induce extensive oxidative stress and cell death. The ability of the compound of protecting against this toxicity is then evaluated by measuring intracellular LDH, using the colorimetric LDH assay.
It is widely accepted that the neurotoxic activity of Aβ resides within amino acids 25-35 (see e.g. Yankner B A et al., (1990) Neurotrophic and neurotoxic effects of amyloid β protein: reversal by tachykinin neuropeptides; Science 250:279-282).

Row | SMILES | minimal effective concentration ([1]; Homo sapiens, CHO-7W) [µM] | Maximum concentration tested for toxicity [2] [µM] | Toxic at maximum concentration tested (Yes/No) ([2]; at 100 μM) | minimal effective concentration [3] [µM] | Toxic at maximum concentration tested (Yes/No) ([2]; at 1000 μM) | minimal effective concentration [1] [µM] | Toxic at maximum concentration tested (Yes/No) ([2]; at 1 mM) | minimal effective concentration [4] [µM] | Protect. H2O2 (minimum concentration for which protection was determined) [3] [nM] | minimal effective concentration [5] [µM] | Inhibition secretion beta-amyloid (minimum concentration) [1] [mM] | minimal effective concentration (SH-SY5Y cells) [µM] | Toxicity at the concentration for which activity was found [2] | Toxic at maximum concentration tested (Yes/No) ([2]; at 10 μM)
1 | ON=Cc1cc(Sc2nccs2)c2ccc3cccnc3c2n1 [Compound 15, 4-(Thiazol-2-ylsulfanyl)-[1,10]phenanthroline-2-carbaldehyde oxime] | 10 | 100 | Yes | 0.5 | – | – | – | – | – | – | – | – | – | –
2 | Cc1cnc(Sc2cc(C=NO)nc3c2ccc2cccnc23)s1 [Compound 17, 4-(5-Methyl-thiazol-2-ylsulfanyl)-[1,10]phenanthroline-2-carbaldehyde oxime] | 10 | 1000 | – | 5 | Yes | – | – | – | – | – | – | – | – | –
3 | CCCSc1cc(/C=N/O)nc2c1ccc1cccnc12 [Compound 5, 4-Propylsulfanyl-[1,10]phenanthroline-2-carbaldehyde oxime] | – | 1000 | – | – | – | 0.001 | Yes | 0.5 | 5 | 0.05 | – | – | – | –
4 | ON=Cc1cc(Cl)c2ccc3cccnc3c2n1 [Compound 2, 4-Chloro-[1,10]phenanthroline-2-carbaldehyde oxime] | – | 1000 | – | 0.05 | – | – | Yes | 0.5 | – | 0.5 | 1 | 10 | – | –
5 | CCOc1cc(/C=N/O)nc2c1ccc1cccnc12 [Compound 6, 4-Ethoxy-[1,10]phenanthroline-2-carbaldehyde oxime] | – | 1000 | – | – | – | 0.01 | Yes | 0.5 | 5 | 0.05 | – | 10 | – | –
6 | O=Cc1cc(Cl)c2ccc3cccnc3c2n1 [Compound 3, 4-Chloro-[1,10]phenanthroline-2-carbaldehyde] | – | 10 | – | 10 | – | – | – | 10 | – | – | – | – | exception | Yes
7 | CSc1cc(C=O)nc2c1ccc1cccnc12 [Compound 20, 4-Methylsulfanyl-[1,10]phenanthroline-2-carbaldehyde] | 10 | 10 | – | 0.5 | – | – | – | – | – | – | – | – | – | Yes
8 | COc1cc(C=NO)nc2c1ccc1cccnc12 [Compound 1, 4-Methoxy-[1,10]phenanthroline-2-carbaldehyde oxime] | – | 1000 | – | 0.05 | – | – | Yes | 0.5 | – | 0.5 | 0.01 | 5 | – | –
9 | ON=Cc1cc(SCC(F)(F)F)c2ccc3cccnc3c2n1 [Compound 13, 4-(2,2,2-Trifluoro-ethylsulfanyl)-[1,10]phenanthroline-2-carbaldehyde oxime] | 10 | 1000 | – | 0.5 | No | – | – | 5 | – | 0.5 | – | 5 | – | –
10 | COC(=O)CSc1cc(C=NO)nc2c1ccc1cccnc12 [Compound 14, [2-(Hydroxyimino-methyl)-[1,10]phenanthrolin-4-ylsulfanyl]-acetic acid methyl ester] | 0.01 | 1000 | – | 0.05 | Yes | – | – | 0.5 | – | 0.5 | – | 10 | – | –
11 | ON=Cc1cc(Sc2nncs2)c2ccc3cccnc3c2n1 [Compound 19, 4-([1,3,4]Thiadiazol-2-ylsulfanyl)-[1,10]phenanthroline-2-carbaldehyde oxime] | 1 | 10 | – | 0.5 | – | – | – | – | – | – | – | – | – | Yes
12 | Cc1nnc(Sc2cc(C=NO)nc3c2ccc2cccnc23)s1 [Compound 18, 4-(5-Methyl-[1,3,4]thiadiazol-2-ylsulfanyl)-[1,10]phenanthroline-2-carbaldehyde oxime] | 0.1 | 10 | – | 0.05 | – | – | – | 10 | – | 0.05 | – | 10 | – | Yes
13 | CN(C)C(=O)CSc1cc(C=NO)nc2c1ccc1cccnc12 [Compound 12, 2-[2-(Hydroxyimino-methyl)-[1,10]phenanthrolin-4-ylsulfanyl]-N,N-dimethyl-acetamide] | 1 | 1000 | – | 0.1 | No | – | – | 0.5 | – | 0.1 | – | 10 | – | –

From patent US8592446B2, “[1,10]-phenanthroline derivatives for the treatment of neurodegenerative or haematological diseases” (Noscira, S.A., priority 2007, dated 2013)
